Earlier results in patent US20100130442A1, “Lung Injury Treatment” (priority 2007, published 2010).

Assays:
[1] = test system: lung injury induced by intratracheal LPS in C57BL/6 mice; details: spontaneously ventilating C57BL/6 mice
[2] = test system: mechanical ventilation induced lung injury; details: in vivo

For `CCCCCCCCCCCCC/C=C/[C@@H](O)[C@@H](N)COP(=O)(O)O` [Sphingosine-1-Phosphate], the “lung injury induced by intratracheal LPS” value [1] is listed as “attenuates” and the “mechanical ventilation induced lung injury” value [2] is listed as “blocked”.
